The results in this text go back to ChEMBL document CHEMBL1201862, “PubChem BioAssay data set” (2004).

Common to all, as to assay: growth of human tumour cells (NCI), 48 h
Experiment [1] relates to A498.
Experiment [2] has as its system A549.
Experiment [3] deals with CCRF-CEM.
Experiment [4] has as its system HL-60.
Experiment [5] deals with Hs-578T.
Experiment [6] concerns IGROV-1.
For experiment [7], the system named is LOX IMVI.
The subject of experiment [8] is MCF7.
Experiment [9] relates to MDA-N.
Experiment [10] concerns MOLT-4.
Experiment [11] relates to NCI-H226.
In experiment [12] the test system is NCI-H23.
Experiment [13] has as its system OVCAR-5.
Experiment [14] relates to OVCAR-8.
Experiment [15] relates to RXF 393.
Experiment [16] relates to SF-268.
Experiment [17] has as its system SK-MEL-5.
Experiment [18] relates to SN12C.
In experiment [19] the test system is U-251.
Experiment [20] relates to UACC-257.

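Results reflect a 48-hour exposure of cells in 96-well plates to compound at five concentrations. GI50: concentration for 50% inhibition of growth.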 Active and inactive are the calls of the source. No stated cut-off is given here; in the data, active = GI50 up to about 1.1 µM and inactive = higher.

For the molecule `N#CC(CCN1CCC(Nc2ccccc2)(c2nnnn2C2CCCCC2)CC1)(c1ccccc1)c1ccccc1`, the GI50 in experiment [1], in experiment [2], in [3], in experiment [4], in [5] and in experiment [6] was > 100 µM (inactive) each time. Also, the GI50 was > 100 µM (inactive) in experiment [7]; 58.2 µM (inactive) in experiment [8]; > 100 µM (inactive) in [9]; > 100 µM (inactive) in experiment [10]; > 100 µM (inactive) in [11]; > 100 µM (inactive) in experiment [12]. The GI50 in [13], in experiment [14], in experiment [15], in experiment [16], in [17] and in experiment [18] was > 100 µM (inactive) each time. Also, the GI50 in [19] and in experiment [20] was > 100 µM (inactive) in each case.
Regarding `CCOC(=O)C1C(c2ccco2)C2(C#N)C(=N)OC1(C)C2(C#N)C#N` (stereo not given), the GI50 in experiment [1] was > 100 µM (inactive); in experiment [2], > 100 µM (inactive); in [3], > 100 µM (inactive); in experiment [4] it was > 10 µM (inactive); in experiment [5] it was > 100 µM (inactive); in [6], > 100 µM (inactive). For the same molecule, the GI50 in experiment [7], in experiment [8], in [9], in [10], in [11] and in experiment [12] was > 100 µM (inactive) each time. In addition, the GI50 in experiment [13], in [14], in [15], in experiment [16], in [17] and in experiment [18] was > 100 µM (inactive) in each case. Besides, the GI50 in experiment [19] and in [20] was > 100 µM (inactive) in each case.
Take `CC(C)(C)OC(=O)NNCC(O)COc1ccccc1` (stereo not given): the GI50 was > 100 µM (inactive) in [1]; > 100 µM (inactive) in [2]; > 100 µM (inactive) in [3]; 0.0318 µM (active) in experiment [4]; > 100 µM (inactive) in experiment [5]; > 100 µM (inactive) in [6]. Also, the GI50 in experiment [7], in experiment [8], in [9], in [10], in experiment [11] and in [12] was > 100 µM (inactive) each time. Further, the GI50 in experiment [13], in experiment [14], in [15], in experiment [16], in experiment [17] and in experiment [18] was > 100 µM (inactive) throughout. Also, the GI50 in experiment [19] and in experiment [20] was > 100 µM (inactive) each time.
On to `O=C(O)c1cc(/N=C/c2ccccc2O)cc(C(=O)O)c1`, for which the GI50 in experiment [1], in [2], in experiment [3], in [4], in [5] and in [6] was > 100 µM (inactive) throughout. In addition, the GI50 is > 100 µM (inactive) in experiment [7]; > 100 µM (inactive) in experiment [8]; > 100 µM (inactive) in experiment [9]; 86.9 µM (inactive) in [10]; > 100 µM (inactive) in experiment [11]; > 100 µM (inactive) in [12]. Moreover, the GI50 in experiment [13], in [14], in experiment [15], in [16], in [17] and in experiment [18] was > 100 µM (inactive) each time. Besides, the GI50 in experiment [19] and in experiment [20] was > 100 µM (inactive) throughout.
As for `CC(C)=CCc1c2c(c3occ(-c4ccc(O)cc4)c(=O)c3c1O)CC(C(C)(C)O)O2` (stereo not given) [SENEGALENSIN], the GI50 in [1] was 16.1 µM (inactive); in experiment [2], 13 µM (inactive); in experiment [3], 17.5 µM (inactive); in experiment [4] it was 12.4 µM (inactive); in [5], 36.1 µM (inactive); in experiment [6], 2.8 µM (inactive). The GI50 is 14.9 µM (inactive) in [7]; 12.8 µM (inactive) in [8]; 21.4 µM (inactive) in experiment [9]; 11.7 µM (inactive) in [10]; 20.3 µM (inactive) in experiment [11]; 18.7 µM (inactive) in experiment [12]. The GI50 in [13] was 19.1 µM (inactive); in [14], 17 µM (inactive); in experiment [15], 13.6 µM (inactive); in experiment [16], 26.5 µM (inactive); in experiment [17], 15.2 µM (inactive); in experiment [18] it was 19.6 µM (inactive). The GI50 in [19] is 13.2 µM (inactive); in experiment [20], 15.7 µM (inactive).
With `c1ccc(COC[C@H]2C3OCC([C@H](OCc4ccccc4)[C@H]3OCc3ccccc3)N2Cc2ccccc2)cc1` (stereo not given in full), the GI50 is 33.7 µM (inactive) in experiment [1]; > 54.2 µM (inactive) in [2]; 27.1 µM (inactive) in experiment [3]; 8.41 µM (inactive) in [4]; > 49.1 µM (inactive) in experiment [5]; 43 µM (inactive) in experiment [6]. For the same molecule, the GI50 was > 50.6 µM (inactive) in [7]; > 56 µM (inactive) in [8]; > 53.2 µM (inactive) in experiment [9]; 6.44 µM (inactive) in experiment [10]; 17.7 µM (inactive) in experiment [11]; 40.3 µM (inactive) in [12]. Moreover, the GI50 was > 52.4 µM (inactive) in experiment [13]; > 50 µM (inactive) in [14]; > 100 µM (inactive) in [15]; > 54.3 µM (inactive) in [16]; 30.8 µM (inactive) in [17]; > 49 µM (inactive) in experiment [18]. Further, the GI50 in experiment [19] was 26.2 µM (inactive); in [20] it was 49 µM (inactive).
For the molecule `CC[C@@]1(O)C(=O)OCc2c1cc1n(c2=O)Cc2c-1nc1ccc(O)cc1c2[Si](C)(C)C(C)(C)C` [AR-67], the GI50 in experiment [1] is 0.0211 µM (active); in [2] it was < 0.01 µM (active); in experiment [3] it was < 0.01 µM (active); in experiment [4], < 0.01 µM (active); in [5], 0.339 µM (active); in experiment [6] it was < 0.019 µM (active). For the same molecule, the GI50 in [7] was < 0.01 µM (active); in experiment [8], < 0.01 µM (active); in experiment [9], < 0.0132 µM (active); in experiment [10] it was < 0.01 µM (active); in experiment [11] it was < 0.01 µM (active); in [12], < 0.01 µM (active). Further, the GI50 was 0.139 µM (active) in experiment [13]; < 0.0123 µM (active) in experiment [14]; < 0.01 µM (active) in experiment [15]; < 0.01 µM (active) in experiment [16]; < 0.01 µM (active) in experiment [17]; < 0.01 µM (active) in [18]. The GI50 is < 0.01 µM (active) in experiment [19] and < 0.0149 µM (active) in [20].
